Columns and labels:
[1] = molecular target: purified bovine brain tubulin; assay: Assay for inhibition of microtubule (tubulin) polymerization; assay type: biochemical; details: 50 μM GTP, 37° C.; read-out: Ki, Inhibition of Tubulin Polymerization by Nucleotide Mimics
Procedure: The assays employed to measure the polymerization and stability of tubulin microtubule protein are described below. The effectiveness of the compounds of the present invention as modulators of tubulin microtubule protein dynamics was measured in the following assays.
This assay was used to measure the ability of the nucleotide mimics of the present invention to inhibit the polymerization of tubulin subunits and subsequent assembly of microtubule protein. This assay is a modification of a published procedure (Xu et al., “Interaction of Tubulin with Guanosine 5′-O-(1-Thiotriphosphate) Diastereoisomers: Specificity of the α-Phosphate Binding Region”, Biochemistry 1994, 33, 11884-90).
The compounds were tested at various concentrations up to 500 μM final concentration. Polymerization assays were performed in 96-well microplates (Costar), in assay buffer containing GTP and tubulin. The nucleotide mimics of the present invention were diluted in buffer and pipetted into the plate wells. Samples were kept on ice until the reactions were initiated by moving the plates into a 37° C. incubator. The polymerization reaction was allowed to proceed at 37° C. for 30 minutes, monitored at 340 nm using a microplate spectrophotometer with a temperature-controlled incubator (Molecular Devices, Sunnyvale, Calif.). Initial velocity data (mA min^−1) was collected and fit to the equations below.
The percentage of inhibition was calculated according to the following equation:
% Inhibition=[1−(mA min^−1 in test reaction−mA min^−1 in blank)/(mA min^−1 in control reaction−mA min^−1 in blank)]×100.
Each inhibitor was titrated over an appropriate range of concentrations, and inhibition constants were determined using the following equations:
v=Vm[S]/(Km(1+[I]/Ki)+[S])

Escherichia coli = assay: Antimicrobial assay, minimal inhibitory concentration; assay type: cell-based
Procedure: (§1) To examine the antimicrobial potential of the nucleotide mimics of the present invention an assay was employed that allowed the screening of a large number of compounds simultaneously. The type of bacteria chosen to screen the compounds are organisms associated with human disease and represent major groups of bacteria based on their structure and metabolism. Bacterial cultures of Escherichia coli and Staphylococcus aureus were incubated overnight at 37° C. in a shaker incubator. A lawn of each overnight bacterial culture was made by plating […] of bacteria on agar plates containing Nutrient Broth. Immediately after plating, sterile blank paper discs were put on top of the lawn and a compound was applied to each blank paper disc. Plates were then incubated overnight and examined for the inhibition of bacterial growth the following day. […] The plates were incubated overnight at 37° C. and then examined spectrophotometrically at 600 nm to determine the minimum concentration of each compound that inhibited replication of bacteria as determined by no increase in absorbance at 600 nm.

HIV-1RF = assay: Anti-HIV-1 cytoprotection assay in CEM-SS cells; assay type: cell-based; details: CEM-SS cells infected with HIV-1RF, MOI approximately 0.01, 6 days, MTS; read-out: CEM-SS IC50 (Anti-HIV Screening)
Procedure: (§2) ollowing paper: Structure-Activity and Cross-Resistance unodeficiency Virus Type 1-Specific ckheit, Jr. et al., Antimicrobial Agents and s were evaluated in CEM-SS cell cultures V-1RF at an MOI of approximately 0.01. At he soluble tetrazolium-based dye MTS viability and quantify compound toxicity of metabolically active cells to yield a soluble analysis of cell viability and compound
Efficacy Evaluation in CEM-SS Cells Anti-HIV-1 Cytoprotection Assay
Cell Preparation—CEM-SS cells were passaged in T-75 flasks prior to use in the antiviral assay. On the day preceding the assay, the cells were split 1:2 to assure they were in an exponential growth phase at the time of infection. Total cell and viability quantification was performed using a hemacytometer and trypan blue exclusion. Cell viability was greater than 95% for the cells to be utilized in the assay. The cells were resuspended at 5×10^4 cells/ml in tissue culture medium and added to the drug-containing microtiter plates in a volume of 50 μl.
Virus Preparation—The virus used for these tests was the lymphocytropic virus strain HIV-1RF. This virus was obtained from the NIH AIDS Research and Reference Reagent Program and was grown in CEM-SS cells for the production of stock virus pools. For each assay, a pre-titered aliquot of virus was removed from the freezer (−80° C.) and allowed to thaw slowly to room temperature in a biological safety cabinet. The virus was resuspended and diluted into tissue culture medium such that the amount of virus added to each well in a volume of 50 μl was the amount determined to give between 85 to 95% cell killing at 6 days post-infection.
(§3) At assay termination, the assay plates were stained with the soluble tetrazolium-based dye MTS (CellTiter Reagent Promega) to determine cell viability and quantify compound toxicity. MTS is metabolized by the mitochondrial enzymes of metabolically active cells to yield a soluble formazan product, allowing the rapid quantitative analysis of cell viability and compound cytotoxicity. […] At termination of the assay, 20 μL of MTS reagent was added per well. The microtiter plates were then incubated 4-6 hrs at 37° C. for the HIV cytoprotection assay; the incubation intervals were chosen based on empirically determined times for optimal dye reduction. Adhesive plate sealers were used in place of the lids, the sealed plate was inverted several times to mix the soluble formazan product and the plate was read spectrophotometrically at 490 nm with a Molecular Devices Vmax plate reader.

CEM cells = assay: Cell uptake procedure (intracellular nucleotide levels by HPLC); assay type: cell-based, Human; details: 24 hour incubation, limit of detection about 5 pmol/10^6 cells
Procedure: CEM cells were resuspended in RPMI at 1×10^7 cells/mL. The appropriate amount of each compound was added to well and then 0.5 ml of the cells was aliquoted into the appropriate number of wells of a 24-well plate and incubated the cells at 37° C. Cells were harvested after 24 hours of incubation. To harvest cells they were transferred to a microfuge tube and spun for one minute at high speed. The samples were washed in PBS containing 1 mg/ml BSA and re-centrifuged. The PBS was then aspirated and 200 μL of ice-cold 60% methanol was added to extract the nucleotides. The extracts were incubated overnight at −20° C. The next day the samples were spun at high speed in a microfuge for 20 minutes and the supernatant transferred to clean tubes and dried in the speed vac. After drying the samples were resuspended in 50 μl, filtered, and the samples then directly injected onto the HPLC. The nucleotides were analyzed using reverse phase HPLC with ion-pairing agents for separation of the nucleotides. The procedure was adapted from the following paper: Furman, et al., Proc. Natl. Acad. Sci. USA 1986, 83, 8333-8337.
The limit of detection was estimated to be 5 pmol/10^6 cells.

in vitro [2] = details: human
Procedure: The stability of compounds in cell extracts was examined as follows:
Cell lysis buffer was added to cell pellets and the cells frozen and thawed 3× using dry ice. The lysis buffer (LB) was composed of the following: 50 mM Tris-HCl, pH 7.4 (100 μl/ml 10× stock), 20% glycerol (200 μl/ml), and 0.5% Triton X-100 (5 μl/ml). 100 μl of LB was added to each microfuge tube containing 10^7 frozen CEM cells. After the cells were lysed the extracts were centrifuged at high speed in a microcentrifuge for 5 minutes and the clarified cell extract transferred to a new tube. The cell stability reaction mixtures contained concentrations of buffer, magnesium, nucleotide, and cell extract as shown below:
The reaction mixtures were incubated at 37° C. At each time point, including at time zero, 12.5 μl aliquots were added to 40 μl ice-cold methanol. […] The samples were incubated in methanol for at least 60 minutes and typically overnight at −20° C. prior to further processing. The cell extracts were centrifuged at high speed in refrigerated microcentrifuge for 20 minutes and the supernatant transferred to a new tube. The extract was then dried under vacuum in a LabConco Centrivap Concentrator. The samples were then resuspended in 40 or 50 μl dH2O, filtered to remove any particulate, and analyzed by reverse phase HPLC.
The reverse phase HPLC columns used for the analysis were either a Phenomenex C18 Aqua column (2×100 mm) or the Phenomenex C18 Aqua column (3×150 mm) used with the appropriate guard column. The HPLC flow rate was either 0.2 ml/min (for the 2×100 mm column) or 0.5 ml/min (for the 3×150 mm column) with the following buffer system: 5 mM tetrabutylammonium acetate, 50 mM ammonium phosphate, and an acetonitrile gradient running from 5% up to as high as 60%. The amount of remaining parent compound at each time point was used to determine the half-life of the compound. […] Unmodified nucleoside triphosphates were used as positive controls.

CEM-SS cells = assay: Compound toxicity in CEM-SS cells (MTS staining); assay type: cell-based; details: read-out: CEM-SS TC50
Procedure: as §2, §3

in vitro [3] = details: bovine, serum
Procedure: Typically the total volume used for the experiment was 500 μl. The final concentrations of the reaction components were as follows:
The reacton mixtures were made up and incubated at 37° C. At appropriate times aliquots of 25 μl were removed and added to 65 μl ice-cold methanol. These solutions were our at −20° C. and typically overnight. After incubation samples were inutes at high speed in a microcentrifuge. The supernatant was nd the extract was dried under vacuum in a LabConco Centrivap Concentrator. The dried extracts were resuspended in dH2O and filtered to remove particulate before analysis on reverse phase HPLC.
The reverse phase HPLC columns used for the analysis were either a Phenomenex C18 Aqua column (2×100 mm) or the Phenomenex C18 Aqua column (3×150 mm) used with the appropriate guard column. The HPLC was run at 0.2 ml/min (for the 2×100 mm column) or at 0.5 ml/min (for the 3×150 mm column) with the following buffer system: 5 mM tetrabutylammonium acetate, 50 mM ammonium phosphate, and an acetonitrile gradient running from 5% up to as high as 60%. The amount of remaining parent compound at each time point was used to determine the half-life of the compound. […] Unmodified nucleoside triphosphates were used as positive controls.

Staphylococcus aureus = assay: Antimicrobial assay, minimal inhibitory concentration; assay type: cell-based
Procedure: as §1

[4] = molecular target: HIV reverse transcriptase (RT) (Human immunodeficiency virus type 1 group M subtype B, UniProt P04585); details: assays using homopolymer templates; background statement; cited from earlier work
[5] = overnight at 37° C., tested 0-200 μg/ml, NA = Not active
[6] = value in brackets beside the μg/ml value
[7] = incubation concentration 100 μM

Molecule	Ki [1]	E. coli MIC (Escherichia coli; [5])	E. coli MIC (Escherichia coli; [6])	IC50 (HIV-1RF)	Half-Life, Cell Extract Half-Lives of AZT 5'-α-P-borano-β,γ-(difluoromethylene) triphosphate Prodrugs (in vitro [2])	CC50 (CEM-SS cells)	other results
Nc1ccn([C@@H]2O[C@H](COP(=O)(O)CCP(=O)(O)O)[C@@H](O)C2(F)F)c(=O)n1 [Compound 81, 2′-Deoxy-2′,2′-difluorocytidine 5′-ethylenediphosphonate]	15.7 µM						
BP(=O)(OC[C@H]1O[C@@H](n2cc(C)c(=O)[nH]c2=O)C[C@H]1N=[N+]=[N-])OP(=O)(O)C(F)(F)P(=O)(O)OCOC(=O)C(C)(C)C (stereo partly drawn) [Compound 69, 3′-Azido-3′-deoxythymidine 5′-α-P-borano-γ-O-(pivaloyloxymethyl)-β,γ-(difluoromethylene)triphosphate]		0.75 µg/mL	(1) uM	1.13 µM	8 h	45.9 µM	Intracellular levels of 27 (CEM cells; incubation concentration 25 μM): 33.1 pmol/10^6 cells; Intracellular levels of 27 (CEM cells; incubation concentration 50 μM): 51.1 pmol/10^6 cells; Intracellular levels of 27 (CEM cells; [7]): 70.8 pmol/10^6 cells; Half-Life, Serum Half-Lives of AZT Triphosphate Mimic Prodrugs (in vitro [3]): >48 h
Nc1nc2c(ncn2[C@@H]2O[C@H](COP(=O)(O)NP(=O)(O)O)[C@@H](O)[C@H]2O)c(=O)[nH]1 [Guanosine 5′-imidodiphosphate]	5.7 µM						
3′-Azido-3′-deoxythymidine 5′-α-P-borano-γ-O-(S-pivaloyl-2-thioethyl)-β,γ-(difluoromethylene)triphosphate [Compound 70]		6 µg/mL	(8.8) uM	0.95 µM	15 h	> 200 µM	Intracellular levels of 27 (CEM cells; incubation concentration 25 μM): 10.5 pmol/10^6 cells; Intracellular levels of 27 (CEM cells; incubation concentration 50 μM): 15.6 pmol/10^6 cells; Intracellular levels of 27 (CEM cells; [7]): 19.7 pmol/10^6 cells; Half-Life, Serum Half-Lives of AZT Triphosphate Mimic Prodrugs (in vitro [3]): >48 h
3′-Azido-3′-deoxythymidine 5′-α-P-borano-β,γ-difluoromethylene-γ-O-palmityltriphosphate [Compound 41]		25 to 50 µg/mL	(33-66) uM	1.41 µM	>48 h	12 µM	S. aureus MIC (Staphylococcus aureus; [5]): 5 to 10 µg/mL; S. aureus MIC (Staphylococcus aureus; [6]): (6.5-13) μM
Nc1nc2c(ncn2[C@@H]2O[C@H](COP(=O)(O)OP(=O)(O)O)[C@@H](O)[C@H]2O)c(=O)[nH]1 [Guanosine 5′-diphosphate]	15.3 µM						
BP(=O)(OC[C@@H]1O[C@H](n2cc(C)c(=O)[nH]c2=O)C[C@H]1N=[N+]=[N-])OP(=O)(O)OP(=O)(O)O (stereo partly drawn) [AZT 5′-α-P-boranotriphosphate]							Ki values, inhibition of HIV reverse transcriptase (RT) [4]: low nM range
Nc1ccn([C@@H]2O[C@H](COP(=O)(O)OP(=O)(O)O)[C@@H](O)C2=CF)c(=O)n1 [2′-Deoxy-2′-fluoromethylenecytidine 5′-diphosphate]	19.4 µM						
D4T 5′-α-P-boranotriphosphate							Ki values, inhibition of HIV reverse transcriptase (RT) [4]: low nM range
